Target: T1, hURAT1 (Homo sapiens, UniProt Q96S37)
T1 sequence (Q96S37 1-553): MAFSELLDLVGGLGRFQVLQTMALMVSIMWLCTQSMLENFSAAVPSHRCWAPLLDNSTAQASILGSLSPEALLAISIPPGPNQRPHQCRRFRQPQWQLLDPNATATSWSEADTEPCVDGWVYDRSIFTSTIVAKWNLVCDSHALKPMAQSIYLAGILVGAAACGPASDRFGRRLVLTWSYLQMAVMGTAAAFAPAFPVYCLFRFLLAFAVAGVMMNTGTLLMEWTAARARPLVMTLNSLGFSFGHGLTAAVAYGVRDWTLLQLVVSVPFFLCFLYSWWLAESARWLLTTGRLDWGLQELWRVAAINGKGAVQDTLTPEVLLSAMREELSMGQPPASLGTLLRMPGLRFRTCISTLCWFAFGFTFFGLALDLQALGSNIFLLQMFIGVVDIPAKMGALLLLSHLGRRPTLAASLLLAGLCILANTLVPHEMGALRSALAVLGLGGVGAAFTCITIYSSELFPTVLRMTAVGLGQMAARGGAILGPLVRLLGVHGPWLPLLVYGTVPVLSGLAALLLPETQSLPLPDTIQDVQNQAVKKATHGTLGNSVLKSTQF
Experiment: Inhibition assay of uric acid transport in HEK293-hURAT1 transfection cell line (14C-uric acid uptake)
Assay type: cell-based
Conditions: for inhibition at 0.5 µM: compound concentration 500 nM, HEK293-hURAT1 stable cells, 14C-uric acid, mean of three tests ±SD, read-out: Inhibition rate of uric acid transport, ±SD (%); for inhibitory effects of uric acid transport in HEK293-hURAT1 transfection cell line, in words: in comparison with control drug Zurampic at 500 nM
Method: Inhibition Assay of Uric Acid Transport for Compounds in HEK293-hURAT1 Transfection Cell Line
1. Construction of a HEK293 stable cell line with high expression of hURAT1:
The plasmid pCMV6-hURAT1 was transfected into HEK293 cells, then the stable strain was obtained by the G418 (final concentration of 500 μg/mL) resistance screening, which is the high expression of hURAT1 transporter membrane protein. It can be used for in vitro inhibition assay of uric acid transporter hURAT1 (Weaver Y M, Ehresman D J, Butenhoff J L, et al. Roles of rat renal organic anion transporters in transporting perfluorinated carboxylates with different chain lengths. Toxicological Sciences, 2009, 113(2):305-314).
2. Coating 24-well plate: to a coated 24-well plate was added 200 μl of 0.1 mg/mL poly-lysine per well and the plate was left overnight. Poly-lysine was removed from wells. The wells were cleaned thoroughly with steriled water and dried for use.
3. To the above coated 24-well plate was added HEK293-hURAT1 stable cells (2×10^5 cells per well). The cells were cultured at 37° C. under 5% CO2 for 3 days.
4. Preparation of HBSS buffer: the following reagents were weighed according to the final concentration of 125 mM sodium gluconate, 4.8 mM potassium gluconate, 1.3 mM calcium gluconate, 1.2 mM KH2PO4, 1.2 mM MgSO4, 5.6 mM glucose and 25 mM HEPES. Deionized water was added to reach the corresponding volume, and the solution was fully mixed to give HBSS (pH value: 7.4). The buffer was stored at −20° C. in a refrigerator.
5. At the day of experiment, the HBSS buffer was taken out of the refrigerator and warmed to 37° C. in a water bath. Taken out the 24-well plate with HEK293-hURAT1 stable cells, removed the culture medium and washed cells with HBSS, then add 160 μL of HBSS and 20 μL test compound per well. The final concentration of tested compound per well is 500 nM. The blank control well contains only 180 μL of HBSS without tested compound. The plate was placed at room temperature for 10 minutes.
6. To each well was added 20 μL of 50 μM ^14C-uric acid. The 24-well plate was placed at room temperature for 20 minutes.
7. The solution in each well was removed and the cells in each well were washed with the pre-cooled HBSS buffer. To each well was added 0.2 M NaOH to dissolve the cells. The solution containing cell fragments was collected and the appropriate amount of scintillation liquid was added. The radioisotope intensity of the ^14C-Uric acid (CPM value) was then detected by using PerkinElmer MicroBeta Trilux 1450 liquid scintillation analyzer.
8. In HEK293 transfected cell lines, the formula for calculating the inhabitation rate of uric acid transport for compounds was shown as below (Table 1), the CPM value of the tested compounds was represented by CPM(tested compound) and the CPM value of the blank control was represented by CPM(blank control). All tests were repeated three times, and the results were averaged and the standard deviation (SD) was calculated: Inhibition rate(%)(500 nM compound concentration)=(CPM(blank control)−CPM(test compound))/CPM(blank control)×100%

SMILES	inhibition at 0.5 µM [%]	inhibitory effects of uric acid transport in HEK293-hURAT1 transfection cell line, in words
CCc1nc2n(c1C(=O)c1cc(Br)c(O)c(Br)c1)CCC(O)C2 (stereo not shown) [Compound 23, (3,5-dibromo-4-hydroxyphenyl)(2-ethyl-7-hydroxy-5,6,7,8-tetrahydroimidazo[1,2-a]pyridine-3-yl)methanone]	47.5 ± 1.65	very good inhibitory effects
CCn1nc2c(c1C(=O)c1cc(Br)c(O)c(Br)c1)COCC2 [Compound 58]	38.6 ± 6.3	–
CCc1nc2n(c1C(O)c1cc(Br)c(O)c(Br)c1)CCCC2 (stereo not shown) [Compound 42, 2,6-dibromo-4-[(2-ethyl-5,6,7,8-tetrahydroimidazo[1,2-a]-pyridin-3-yl)hydroxymethyl]phenol]	47.6 ± 3.08	very good inhibitory effects
CCc1nc2n(c1C(=O)c1cc(Br)c(O)c(Br)c1)CCC(OC)C2 (stereo not shown) [Compound 25, (3,5-dibromo-4-hydroxyphenyl)-(2-ethyl-7-methoxy-5,6,7,8-tetrahydroimidazo[1,2-a]pyridin-3-yl)methanone]	47.6 ± 4.12	very good inhibitory effects
CCc1nc2n(c1C(=O)c1cc(Br)c(O)c(Br)c1)CC(C)CC2 (stereo not shown) [Compound 43, (3,5-dibromo-4-hydroxyphenyl)(2-ethyl-6-methyl-5,6,7,8-tetrahydroimidazo[1,2-a]pyridin-3-yl)methanone]	53.2 ± 9.36	very good inhibitory effects
CCc1nc2n(c1C(=O)c1cc(Br)c(O)c(C#N)c1)CCCC2 [Compound 17, 3-bromo-5-(2-ethyl-5,6,7,8-tetrahydroimidazo[1,2-a]pyridine-3-carbonyl)-2-hydroxybenzonitrile]	47.46 ± 0.14	very good inhibitory effects
O=C(O)CSc1nnc(Br)n1-c1ccc(C2CC2)c2ccccc12 [Zurampic, Lesinurad, reference compound]	27.6 ± 2.89	–
CCc1nc2n(c1C(O)c1cc(Br)c(O)c(C#N)c1)CCCC2 (stereo not shown) [Compound 63, 3-bromo-5-((2-ethyl-5,6,7,8-tetrahydroimidazo[1,2-a]pyridin-3-yl)hydroxymethyl)-2-hydroxyl benzonitrile]	42.3 ± 2.6	–
CCc1nc2n(c1C(=O)c1cc(C)c(O)c(Br)c1)CCCC2 [Compound 48, (3-bromo-4-hydroxy-5-methylphenyl)(2-ethyl-5,6,7,8-tetrahydroimidazo[1,2-a]pyridin-3-yl)methanone]	46.1 ± 4.91	very good inhibitory effects
CCn1nc2c(c1C(=O)c1cc(Br)c(O)c(Br)c1)CCCC2 [Compound 41, (3,5-dibromo-4-hydroxyphenyl)(2-ethyl-4,5,6,7-tetrahydro-2H-indazol-3-yl)methanone]	46.2 ± 6.18	very good inhibitory effects
CCc1nc2n(c1C(=O)c1cc(Br)c(O)c(Br)c1)CCCC2 [Compound 5, (3,5-dibromo-4-hydroxyphenyl)(2-ethyl-5,6,7,8-tetrahydroimidazo[1,2-a]pyridine-3-yl)methanone]	53.4 ± 4.54	very good inhibitory effects
CCc1nn2c(c1C(=O)c1cc(Br)c(O)c(Br)c1)CCCC2 [Compound 32]	43.4 ± 2.4	–
[2H]C1c2nc(CC)c(C(=O)c3cc(Br)c(O)c(Br)c3)n2C([2H])C([2H])([2H])C1[2H] (stereo not shown) [Compound 10, (3,5-dibromo-4-hydroxyphenyl)(5,6,6,7,8-pentadeuterio-2-ethyl-5,6,7,8-tetrahydroimidazo[1,2-a]pyridin-3-yl)methanone]	47.5 ± 3.12	very good inhibitory effects
